# Laboratory results as given in patent publication US20100249418A1, “NOVEL COMPOUND HAVING AFFINITY FOR AMYLOID” (NIHON MEDI-PHYSICS CO., LTD., priority 2007, published 2010).
# Like-named read-outs stand apart in the source and are kept apart here.
# Key:
# [1] = [125I]-labeled, normal mice, cited from earlier work; for Transfer into brain: 2 minutes after administration
# [2] = Measurement of partition coefficient based on the octanol extraction method (log Poctanol); type: physicochemical; details: octanol / 10 mmol/L phosphate buffer (pH 7.4)
# Protocol: Partition coefficients based on the octanol extraction method (hereinafter referred to as log Poctanol) were measured, which are generally known as an indicator of permeability of compounds through the blood-brain barrier (hereinafter referred to as BBB).
# Each diethyl ether solution of Compound 1, Compound 2, Compound 3 and Compound 4 as well as a diethyl ether solution of [^123I]-IMPY were each diluted with 10 mg/mL ascorbic acid-containing physiological saline solution, and adjusted to a radioactive concentration of 27-30 MBq/mL. To 2 mL of octanol, 10 μL each of these solutions was added, and 2 mL of 10 mmol/L phosphate buffer (pH 7.4) was added, followed by stirring for 30 seconds. After each mixture was centrifuged (2000 rpm×60 min.) with a low-speed centrifuge (type: CTD4, manufactured by Hitachi Koki Co., Ltd), the octanol layer and the water layer were sampled each in an amount of 1 mL, and subjected to measurement of radioactivity count with an autowell gamma system (Type: ARC-301B, manufactured by Aloka). Using the obtained radioactivity count, log Poctanol was calculated in accordance with the equation (1).
# [3] = Measurement of transferability into brain and clearance (radioactive accumulation in brain after intravenous injection); type: in vivo, male Wistar rats; details: rats; for Radioactive accumulation per unit weight, After 2 min. / Radioactive accumulation per unit weight, After 5 min. / Radioactive accumulation per unit weight, After 30 min. / Radioactive accumulation per unit weight, After 60 min.: brain; for Radioactive accumulation per unit weight, After 2 min.: 2 min after injection; for Radioactive accumulation per unit weight, After 5 min.: 5 min after injection; for Radioactive accumulation per unit weight, After 30 min.: 30 min after injection; for Radioactive accumulation per unit weight, After 60 min.: 60 min after injection; for Transferability to brain and clearance from brain (in words): 2 to 60 min
# Protocol: Using Compound 1, Compound 2, Compound 3 and Compound 4, a time course change of radioactive accumulation in brain of male Wistar rats (7-week old) was measured.
# Compound 1 in 10 mg/mL ascorbic acid-containing physiological saline solution (27 MBq/mL in radioactive concentration), Compound 2 in 10 mg/mL ascorbic acid-containing physiological saline solution (27 MBq/mL in radioactive concentration), Compound 3 in 10 mg/mL ascorbic acid-containing physiological saline solution (28 MBq/mL in radioactive concentration) and Compound 4 in 10 mg/mL ascorbic acid-containing physiological saline solution (30 MBq/mL in radioactive concentration) were prepared to obtain sample solutions. The sample solutions were injected under thiopental anesthesia into the tail vein of the male Wistar rats (7-week old) (dosage: 0.05 mL, dosed radioactivity: 1.4-1.5 MBq equivalent). The rats were sacrificed by bleeding from abdominal artery, and brains were removed and subjected to measurement of mass of brains and further subjected to measurement of radioactivity (hereinafter referred to as A in this Example) with a single channel analyzer (detector type: SP-20 manufactured by OHYO KOKEN KOGYO Co., Ltd.) 2, 5, 30 and 60 minutes after the injection. Further, the radioactivity level of the rest of the whole body was measured in the same manner as above (hereinafter referred to as B in this Example). Using these measurement results, radioactive accumulation per unit weight of brain (% ID/g) at the respective time points of dissection was calculated in accordance with the following formula (2) (Examples 19 to 22).
# Separately, [^123I]-IMPY in 10 mg/mL ascorbic acid-containing physiological saline solution (16 MBq/mL in radioactive concentration) was prepared, the same procedure as above was conducted, and radioactive accumulation per unit weight of brain (% ID/g) at the respective time points of dissection was calculated (Comparative Example 1).
# Meanwhile, three animals were used for all Examples and Comparative Example 2 at the respective time points.
# [4] = system: Salmonella typhimurium TA98 and TA100; test: Reverse mutation test (Ames test), overall statement for both strains; type: cell-based
# Protocol: (§1) In order to examine gene mutagenicity of Compound 5, reverse mutation test using Salmonella typhimurium TA98 and TA100 (hereinafter referred to as Ames test) was conducted.
# (§2) The test was conducted without addition of S9mix and with addition of S9mix. Dimethylsulfoxide (hereinafter referred to as DMSO) was used as a negative control. A positive control was 2-(2-furyl)-3-(5-nitro-2-furyl)acrylamide (hereinafter referred to as AF-2) in case S9mix was not added, and 2-aminoanthracene (hereinafter referred to as 2-AA) in case S9mix was added.
# (§3) As a sample solution to be added to a test plate, a solution at maximum concentration in which Compound 5 was dissolved in DMSO (concentration of compound: 50 mg/mL) and a sample solution to be added to a test plate at each concentration in which a solution at maximum concentration was diluted with DMSO were prepared. […]
# [5] = system: Salmonella typhimurium TA98; test: Reverse mutation test (Ames test), TA98; type: cell-based
# Protocol: as §1, §2, §3
# [6] = system: Salmonella typhimurium TA100; test: Reverse mutation test (Ames test), TA100; type: cell-based
# Protocol: as §1, §2, §3
# [7] = reported in WO03/106439; cited from earlier work
# amyloid = details: [125I]-labeled compounds, cited from earlier work
# [8] = [11C]-labeled, rats; cited from earlier work
Compound,logPoctanol value [2],"Radioactive accumulation per unit weight, After 2 min. [3] [% ID/g]","Radioactive accumulation per unit weight, After 5 min. [3] [% ID/g]","Radioactive accumulation per unit weight, After 30 min. [3] [% ID/g]","Radioactive accumulation per unit weight, After 60 min. [3] [% ID/g]",Transferability to brain and clearance from brain (in words) [3],other results
"CN(C)c1ccc(-c2nc3ccc(I)cc3o2)cc1 [IBOX, 6-iodo-2-[4′-(N,N-dimethylamino)phenyl]benzoxazole]",–,–,–,–,–,–,Transfer into brain [1]: transferred into brain; Clearance from normal tissues [1]: insufficient in clearance from normal tissues
"2-(4′-hydroxyphenyl)-6-[^123I]iodo-3-methylimidazo[1,2-a]pyridine [Compound 3]",2.5,0.50,0.34,0.05,0.01,excellent transferability to brain and rapid clearance from brain,–
"CN(C)c1ccc(/C=C/c2ccc(I)cc2)cc1 [m-I-SB, (E)-4-dimethylamino-4′-iodostilbene]",–,–,–,–,–,–,Transfer into brain [1]: transferred into brain; Clearance from normal tissues [1]: insufficient in clearance from normal tissues
"2-[4′-(2″-hydroxyethoxy)phenyl]-6-[^123I]iodo-3-methylimidazo[1,2-a]pyridine [Compound 2]",2.2,0.57,0.36,0.05,0.01,excellent transferability to brain and rapid clearance from brain,"Number of reverse mutation colonies relative to the group treated with the negative control ([4]; regardless of addition of S9mix and the addition amount of sample, negative control DMSO): less than two times"
"Cc1c(-c2ccc(OCCO)cc2)nc2ccc(I)cn12 [Compound 5, 2-[4′-(2″-hydroxyethoxy)phenyl]-6-iodo-3-methylimidazo[1,2-a]pyridine]",–,–,–,–,–,–,"Mutagenicity, TA98, with addition of S9mix ([5]; with addition of S9mix): Negative; Mutagenicity, TA98, without addition of S9mix ([5]; without addition of S9mix): Negative; Mutagenicity, TA100, with addition of S9mix ([6]; with addition of S9mix): Negative; Mutagenicity, TA100, without addition of S9mix ([6]; without addition of S9mix): Negative; Ames test judgement (mutagenicity) ([4]; TA98 and TA100, with and without S9mix): negative in the Ames test and has no mutagenicity"
"CN(C)c1ccc(-c2nc3ccc(I)cc3s2)cc1 [TZDM, 6-iodo-2-[4′-(N,N-dimethylamino)phenyl]benzothiazole]",–,–,–,–,–,–,Transfer into brain [1]: transferred into brain; Clearance from normal tissues [1]: insufficient in clearance from normal tissues
"3-cyano-2-[4′-(2″-hydroxyethoxy)phenyl]-6-[^123I]iodoimidazo[1,2-a]pyridine [Compound 4]",3.0,0.82,0.67,0.18,0.04,excellent transferability to brain and rapid clearance from brain,–
"CC(=C(C#N)C#N)c1ccc2cc(N(C)CCF)ccc2c1 [FDDNP, 2-(1-{6-[(2-fluoroethyl)(methyl)amino]-2-naphthyl}ethylidene)malononitrile]",–,–,–,–,–,–,Reverse mutation test result [7]: positive
"CN(C)c1ccc(-c2cn3cc(I)ccc3n2)cc1 [IMPY, 6-iodo-2-[4′-(N,N-dimethylamino)phenyl]imidazo[1,2-a]pyridine]",–,–,–,–,–,–,Reverse mutation test result [7]: positive; Transfer to brain and accumulation at amyloid (amyloid; after administration): transferring to brain and accumulating at amyloid after administration; Clearance from normal tissues (amyloid): rapid clearance from normal tissues
"Cc1c(-c2ccc(F)cc2)nc2ccc([123I])cn12 [Compound 1, 2-(4′-fluorophenyl)-6-[^123I]iodo-3-methylimidazo[1,2-a]pyridine]",2.3,0.91,0.60,0.08,0.03,excellent transferability to brain and rapid clearance from brain,–
"CN(C)c1ccc(-c2cn3cc([123I])ccc3n2)cc1 [[^123I]-IMPY, reference compound]",1.9,1.19,0.97,0.23,0.09,excellent transferability to brain and rapid clearance from brain,–
"CNc1ccc(/C=C/c2ccc(O)cc2)cc1 [SB-13, (E)-4-methylamino-4′-hydroxystilbene]",–,–,–,–,–,–,Clearance from normal tissues [8]: it cannot be said that the clearance is sufficiently fast
